Assay results as given in the kinase profiling compilation of Christmann-Franck et al. (2016).
Where “and” joins values, the source holds several entries; their conditions need not be identical. Equal entries are not always repeated.

Legend:
Assay in all cases: radiometric filter-binding kinase assay, Kinase HotSpot
Details in all cases: compound 0.5 µM; ATP 10 µM
ACVR1 (human) = ACVR1 (human) (UniProt Q04771)
BRSK2 (human) = BRSK2 (human) (UniProt Q8IWQ3)
CAMK1D (human) = CAMK1D (human) (UniProt Q8IU85)
Chain of CAMK1D (human) (Q8IU85 whole entry, looked up): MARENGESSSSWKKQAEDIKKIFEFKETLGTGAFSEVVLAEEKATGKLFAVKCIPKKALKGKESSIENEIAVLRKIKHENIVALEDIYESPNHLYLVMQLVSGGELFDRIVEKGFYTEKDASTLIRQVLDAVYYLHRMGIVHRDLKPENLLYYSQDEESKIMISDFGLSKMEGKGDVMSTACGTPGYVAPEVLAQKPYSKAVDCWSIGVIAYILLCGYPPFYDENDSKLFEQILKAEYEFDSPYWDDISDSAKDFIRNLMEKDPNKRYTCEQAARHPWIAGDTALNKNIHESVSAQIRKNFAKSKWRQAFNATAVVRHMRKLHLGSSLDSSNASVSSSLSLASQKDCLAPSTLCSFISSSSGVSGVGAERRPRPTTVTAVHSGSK

CAMK1G (human) = CAMK1G (human) (UniProt Q96NX5)
Chain of CAMK1G (human) (Q96NX5 whole entry, looked up): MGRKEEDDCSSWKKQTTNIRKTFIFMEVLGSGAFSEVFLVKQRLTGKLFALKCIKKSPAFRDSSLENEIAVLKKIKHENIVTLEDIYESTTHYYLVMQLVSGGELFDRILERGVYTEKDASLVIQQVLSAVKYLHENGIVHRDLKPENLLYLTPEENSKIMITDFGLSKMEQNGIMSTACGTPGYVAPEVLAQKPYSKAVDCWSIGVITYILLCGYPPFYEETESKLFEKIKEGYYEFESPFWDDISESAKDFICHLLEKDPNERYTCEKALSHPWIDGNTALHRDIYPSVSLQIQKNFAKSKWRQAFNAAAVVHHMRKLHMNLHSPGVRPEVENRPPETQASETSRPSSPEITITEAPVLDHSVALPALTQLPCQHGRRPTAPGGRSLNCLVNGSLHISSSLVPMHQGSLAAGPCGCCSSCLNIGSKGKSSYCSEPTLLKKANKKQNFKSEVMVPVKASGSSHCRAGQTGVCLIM

CAMK2G (human) = CAMK2G (human) (UniProt Q13555)
CSNK1A1 (human) = CSNK1A1 (human) (UniProt P48729)
Chain of CSNK1A1 (human) (P48729 whole entry, looked up): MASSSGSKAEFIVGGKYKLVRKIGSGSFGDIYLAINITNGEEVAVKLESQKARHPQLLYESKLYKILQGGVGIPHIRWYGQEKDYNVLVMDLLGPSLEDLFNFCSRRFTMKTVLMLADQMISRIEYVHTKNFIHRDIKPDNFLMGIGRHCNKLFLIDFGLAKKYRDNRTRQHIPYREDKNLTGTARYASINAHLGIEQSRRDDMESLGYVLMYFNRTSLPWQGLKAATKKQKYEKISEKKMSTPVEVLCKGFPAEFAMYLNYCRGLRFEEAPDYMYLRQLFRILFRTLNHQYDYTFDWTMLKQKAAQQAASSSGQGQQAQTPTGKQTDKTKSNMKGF

DDR2 (human) = DDR2 (human) (UniProt Q16832)
DYRK1B (human) = DYRK1B (human) (UniProt Q9Y463)
DYRK2 (human) = DYRK2 (human) (UniProt Q92630)
EPHA2 (human) = EPHA2 (human) (UniProt P29317)
EPHB3 (human) = EPHB3 (human) (UniProt P54753)
Chain of EPHB3 (human) (P54753 whole entry, looked up): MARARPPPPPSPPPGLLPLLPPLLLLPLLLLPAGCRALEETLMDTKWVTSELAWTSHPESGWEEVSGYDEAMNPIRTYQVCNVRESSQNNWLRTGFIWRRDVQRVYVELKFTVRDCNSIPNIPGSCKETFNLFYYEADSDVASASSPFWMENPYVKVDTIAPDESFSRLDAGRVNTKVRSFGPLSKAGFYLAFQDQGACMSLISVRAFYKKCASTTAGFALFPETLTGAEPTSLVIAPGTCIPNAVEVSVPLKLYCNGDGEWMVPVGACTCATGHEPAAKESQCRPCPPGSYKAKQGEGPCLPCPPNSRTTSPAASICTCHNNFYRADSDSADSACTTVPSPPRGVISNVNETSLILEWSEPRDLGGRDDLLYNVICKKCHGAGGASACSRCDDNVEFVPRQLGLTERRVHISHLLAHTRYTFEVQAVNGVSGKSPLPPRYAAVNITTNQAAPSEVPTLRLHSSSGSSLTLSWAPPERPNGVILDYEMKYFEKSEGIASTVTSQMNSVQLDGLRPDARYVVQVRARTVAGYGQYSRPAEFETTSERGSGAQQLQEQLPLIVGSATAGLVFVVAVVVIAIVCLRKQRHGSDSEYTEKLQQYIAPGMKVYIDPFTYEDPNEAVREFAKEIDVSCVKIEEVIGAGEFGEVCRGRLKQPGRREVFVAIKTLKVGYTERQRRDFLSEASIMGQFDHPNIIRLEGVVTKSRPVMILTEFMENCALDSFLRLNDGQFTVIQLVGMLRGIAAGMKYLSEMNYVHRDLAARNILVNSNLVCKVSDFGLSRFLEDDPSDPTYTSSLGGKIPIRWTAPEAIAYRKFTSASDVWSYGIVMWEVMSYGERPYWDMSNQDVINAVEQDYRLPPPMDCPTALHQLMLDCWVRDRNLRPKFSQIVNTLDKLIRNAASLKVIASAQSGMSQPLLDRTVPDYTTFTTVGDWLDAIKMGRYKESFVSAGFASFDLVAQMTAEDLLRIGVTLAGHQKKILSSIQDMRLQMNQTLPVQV

FGFR3 (human) = FGFR3 (human) (UniProt P22607)
GRK4 (human) = GRK4 (human) (UniProt P32298)
HCK (human) = HCK (human) (UniProt P08631)
Chain of HCK (human) (P08631 whole entry, looked up): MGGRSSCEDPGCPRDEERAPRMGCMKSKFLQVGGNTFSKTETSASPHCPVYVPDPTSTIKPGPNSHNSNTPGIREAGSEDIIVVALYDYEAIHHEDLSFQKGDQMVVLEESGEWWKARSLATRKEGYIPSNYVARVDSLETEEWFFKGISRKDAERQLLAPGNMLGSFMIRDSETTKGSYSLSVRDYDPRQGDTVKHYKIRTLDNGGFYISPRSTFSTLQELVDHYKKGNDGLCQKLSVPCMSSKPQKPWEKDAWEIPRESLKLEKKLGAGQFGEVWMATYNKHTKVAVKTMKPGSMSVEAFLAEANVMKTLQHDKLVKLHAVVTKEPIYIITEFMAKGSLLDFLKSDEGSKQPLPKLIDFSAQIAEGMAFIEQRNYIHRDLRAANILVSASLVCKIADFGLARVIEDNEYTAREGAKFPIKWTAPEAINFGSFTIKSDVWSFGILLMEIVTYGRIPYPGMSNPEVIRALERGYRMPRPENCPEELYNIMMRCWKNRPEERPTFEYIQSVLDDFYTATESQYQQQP

HIPK1 (human) = HIPK1 (human) (UniProt Q86Z02)
JAK3 JH1 JH2 (human) = JAK3 JH1 JH2 (human) (UniProt P52333)
Chain of JAK3 JH1 JH2 (human) (P52333 whole entry, looked up): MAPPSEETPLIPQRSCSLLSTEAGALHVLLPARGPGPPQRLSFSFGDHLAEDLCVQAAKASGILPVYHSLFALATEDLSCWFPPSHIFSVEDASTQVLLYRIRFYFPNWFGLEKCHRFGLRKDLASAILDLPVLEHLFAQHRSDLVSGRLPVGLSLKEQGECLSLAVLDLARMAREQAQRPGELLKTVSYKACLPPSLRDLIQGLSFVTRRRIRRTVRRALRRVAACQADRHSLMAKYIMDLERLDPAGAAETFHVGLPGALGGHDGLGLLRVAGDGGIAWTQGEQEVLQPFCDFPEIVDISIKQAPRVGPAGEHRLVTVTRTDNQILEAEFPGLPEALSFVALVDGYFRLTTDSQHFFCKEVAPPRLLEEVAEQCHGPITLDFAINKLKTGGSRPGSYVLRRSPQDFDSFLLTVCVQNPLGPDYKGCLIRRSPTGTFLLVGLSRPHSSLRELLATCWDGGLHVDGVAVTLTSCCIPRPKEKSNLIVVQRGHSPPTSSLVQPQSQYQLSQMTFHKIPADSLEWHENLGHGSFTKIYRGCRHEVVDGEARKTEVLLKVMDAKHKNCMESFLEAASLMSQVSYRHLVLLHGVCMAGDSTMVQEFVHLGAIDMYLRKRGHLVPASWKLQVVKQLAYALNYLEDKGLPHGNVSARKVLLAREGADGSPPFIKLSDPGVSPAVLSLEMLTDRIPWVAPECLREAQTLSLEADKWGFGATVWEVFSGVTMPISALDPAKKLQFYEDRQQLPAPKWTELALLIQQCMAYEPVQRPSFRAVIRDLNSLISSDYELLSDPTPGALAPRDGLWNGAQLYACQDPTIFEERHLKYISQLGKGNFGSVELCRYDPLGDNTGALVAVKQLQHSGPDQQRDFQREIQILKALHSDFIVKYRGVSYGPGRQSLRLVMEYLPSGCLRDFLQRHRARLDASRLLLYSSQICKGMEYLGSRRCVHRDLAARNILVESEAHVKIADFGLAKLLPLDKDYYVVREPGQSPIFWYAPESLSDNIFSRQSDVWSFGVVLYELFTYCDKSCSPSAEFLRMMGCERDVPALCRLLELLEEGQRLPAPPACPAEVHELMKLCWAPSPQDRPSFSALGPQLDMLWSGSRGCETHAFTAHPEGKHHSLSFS

MAP3K3 (human) = MAP3K3 (human) (UniProt Q99759)
MAPK12 (human) = MAPK12 (human) (UniProt P53778)
MAPK8 (human) = MAPK8 (human) (UniProt P45983)
MAPKAPK5 (human) = MAPKAPK5 (human) (UniProt Q8IW41)
MARK3 (human) = MARK3 (human) (UniProt P27448)
MINK1 (human) = MINK1 (human) (UniProt Q8N4C8)
MST4 (human) = MST4 (human) (UniProt Q9P289)
NEK1 (human) = NEK1 (human) (UniProt Q96PY6)
NEK11 (human) = NEK11 (human) (UniProt Q8NG66)
NEK7 (human) = NEK7 (human) (UniProt Q8TDX7)
Chain of NEK7 (human) (Q8TDX7 whole entry, looked up): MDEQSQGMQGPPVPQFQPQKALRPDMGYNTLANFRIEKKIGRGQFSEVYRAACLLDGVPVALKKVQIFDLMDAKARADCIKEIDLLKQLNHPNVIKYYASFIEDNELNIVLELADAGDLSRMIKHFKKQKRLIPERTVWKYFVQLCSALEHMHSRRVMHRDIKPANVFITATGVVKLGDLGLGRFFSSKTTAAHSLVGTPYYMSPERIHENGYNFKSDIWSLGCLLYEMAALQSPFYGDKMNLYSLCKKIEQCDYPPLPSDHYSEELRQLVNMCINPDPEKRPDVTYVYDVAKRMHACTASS

NLK (human) = NLK (human) (UniProt Q9UBE8)
NTRK1 (human) = NTRK1 (human) (UniProt P04629)
NTRK3 (human) = NTRK3 (human) (UniProt Q16288)
Chain of NTRK3 (human) (Q16288 whole entry, looked up): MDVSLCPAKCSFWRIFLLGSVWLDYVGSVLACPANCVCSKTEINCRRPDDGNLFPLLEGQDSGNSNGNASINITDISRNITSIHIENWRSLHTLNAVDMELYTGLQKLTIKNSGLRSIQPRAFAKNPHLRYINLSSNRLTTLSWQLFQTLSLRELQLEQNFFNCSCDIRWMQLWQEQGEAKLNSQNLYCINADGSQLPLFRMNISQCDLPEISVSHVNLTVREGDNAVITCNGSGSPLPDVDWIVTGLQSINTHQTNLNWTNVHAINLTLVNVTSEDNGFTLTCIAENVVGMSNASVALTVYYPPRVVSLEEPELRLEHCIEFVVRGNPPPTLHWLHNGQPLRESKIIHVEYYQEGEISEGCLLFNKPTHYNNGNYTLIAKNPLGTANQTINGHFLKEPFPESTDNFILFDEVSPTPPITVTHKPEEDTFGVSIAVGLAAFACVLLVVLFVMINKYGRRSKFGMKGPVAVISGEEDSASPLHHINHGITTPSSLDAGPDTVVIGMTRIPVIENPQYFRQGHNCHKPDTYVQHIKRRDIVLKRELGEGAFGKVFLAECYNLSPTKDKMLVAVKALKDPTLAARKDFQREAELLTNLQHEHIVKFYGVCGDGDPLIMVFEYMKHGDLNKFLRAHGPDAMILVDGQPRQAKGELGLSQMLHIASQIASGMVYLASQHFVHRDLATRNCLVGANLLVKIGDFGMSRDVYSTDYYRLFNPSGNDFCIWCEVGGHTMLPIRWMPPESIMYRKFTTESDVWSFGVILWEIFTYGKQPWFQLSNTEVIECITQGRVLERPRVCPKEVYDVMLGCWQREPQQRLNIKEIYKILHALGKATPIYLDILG

PDGFRA (human) = PDGFRA (human) (UniProt P16234)
PNCK (human) = PNCK (human) (UniProt Q6P2M8)
PRKCZ (human) = PRKCZ (human) (UniProt Q05513)
PRKD1 (human) = PRKD1 (human) (UniProt Q15139)
PRKD2 (human) = PRKD2 (human) (UniProt Q9BZL6)
PRKG1 (human) = PRKG1 (human) (UniProt Q13976)
PTK2 (human) = PTK2 (human) (UniProt Q05397)
RPS6KA1 KD1 KD2 (human) = RPS6KA1 KD1 KD2 (human) (UniProt Q15418)
RPS6KB1 (human) = RPS6KB1 (human) (UniProt P23443)
SLK (human) = SLK (human) (UniProt Q9H2G2)
SRPK3 (human) = SRPK3 (human) (UniProt Q9UPE1)
TBK1 (human) = TBK1 (human) (UniProt Q9UHD2)
MET (human) = MET (human) (UniProt P08581)

## COc1cc2ncnc(Nc3ccc(Oc4ccccc4)cc3)c2cc1OC
ACVR1 (human)
  residual activity: 93.7%
BRSK2 (human)
  residual activity: 101%
CAMK1D (human)
  residual activity: 99.7%
CAMK1G (human)
  residual activity: 101%
CAMK2G (human)
  residual activity: 94%
CSNK1A1 (human)
  residual activity: 98.2%
DDR2 (human)
  residual activity: 97.9%
DYRK1B (human)
  residual activity: 97%
DYRK2 (human)
  residual activity: 104%
EPHA2 (human)
  residual activity: 106%
EPHB3 (human)
  residual activity: 103%
FGFR3 (human)
  residual activity: 87.1%
GRK4 (human)
  residual activity: 97.1%
HCK (human)
  residual activity: 13.5%
HIPK1 (human)
  residual activity: 102%
JAK3 JH1 JH2 (human)
  residual activity: 93.1%
MAP3K3 (human)
  residual activity: 94.5%
MAPK12 (human)
  residual activity: 105%
MAPK8 (human)
  residual activity: 91.8%
MAPKAPK5 (human)
  residual activity: 98%
MARK3 (human)
  residual activity: 108%
MINK1 (human)
  residual activity: 101%
MST4 (human)
  residual activity: 102%
NEK1 (human)
  residual activity: 101%
NEK11 (human)
  residual activity: 74.8%
NEK7 (human)
  residual activity: 103%
NLK (human)
  residual activity: 100%
NTRK1 (human)
  residual activity: 101%
NTRK3 (human)
  residual activity: 99.7%
PDGFRA (human)
  residual activity: 88.8%
PNCK (human)
  residual activity: 97.7%
PRKCZ (human)
  residual activity: 100%
PRKD1 (human)
  residual activity: 95.6%
PRKD2 (human)
  residual activity: 100%
PRKG1 (human)
  residual activity: 92.5% and 93.6%
PTK2 (human)
  residual activity: 98.1%
RPS6KA1 KD1 KD2 (human)
  residual activity: 97.6%
RPS6KB1 (human)
  residual activity: 108%
SLK (human)
  residual activity: 88.7%
SRPK3 (human)
  residual activity: 94.8%
TBK1 (human)
  residual activity: 93.7%

## CN(C)S(=O)(=O)c1ccc2c(c1)/C(=C/c1cc3c([nH]1)CCCC3)C(=O)N2
ACVR1 (human)
  residual activity: 98.6%
BRSK2 (human)
  residual activity: 48.7%
CAMK1D (human)
  residual activity: 99.8%
CAMK1G (human)
  residual activity: 97.1%
CAMK2G (human)
  residual activity: 98.9%
CSNK1A1 (human)
  residual activity: 91.7%
DYRK1B (human)
  residual activity: 93.6%
DYRK2 (human)
  residual activity: 103%
EPHA2 (human)
  residual activity: 96.5%
EPHB3 (human)
  residual activity: 105%
FGFR3 (human)
  residual activity: 57.1%
GRK4 (human)
  residual activity: 79.8%
HCK (human)
  residual activity: 31.6%
JAK3 JH1 JH2 (human)
  residual activity: 64.8%
MAP3K3 (human)
  residual activity: 48.7%
MAPK12 (human)
  residual activity: 103%
MAPK8 (human)
  residual activity: 91.1%
MAPKAPK5 (human)
  residual activity: 99.8%
MARK3 (human)
  residual activity: 68.9%
MET (human)
  residual activity: 92.2%
MINK1 (human)
  residual activity: 83.8%
MST4 (human)
  residual activity: 45.6%
NEK1 (human)
  residual activity: 93.1%
NEK11 (human)
  residual activity: 82.5%
NEK7 (human)
  residual activity: 103%
NLK (human)
  residual activity: 99.7%
NTRK1 (human)
  residual activity: 24.7%
NTRK3 (human)
  residual activity: 2.88%
PDGFRA (human)
  residual activity: 93.7%
PNCK (human)
  residual activity: 95.7%
PRKCZ (human)
  residual activity: 98.9%
PRKD1 (human)
  residual activity: 102%
PRKD2 (human)
  residual activity: 102%
PRKG1 (human)
  residual activity: 82.5% and 88.6%
PTK2 (human)
  residual activity: 33.1%
RPS6KA1 KD1 KD2 (human)
  residual activity: 68.1%
RPS6KB1 (human)
  residual activity: 96.5%
SLK (human)
  residual activity: 23.4%
SRPK3 (human)
  residual activity: 67.2%
TBK1 (human)
  residual activity: 80.6%

## O=C1Nc2ccc(Br)cc2/C1=C\c1cc2c([nH]1)CCCC2
ACVR1 (human)
  residual activity: 97%
BRSK2 (human)
  residual activity: 93.8%
CAMK1D (human)
  residual activity: 96.8%
CAMK1G (human)
  residual activity: 103%
CAMK2G (human)
  residual activity: 92.4%
CSNK1A1 (human)
  residual activity: 100%
DDR2 (human)
  residual activity: 101%
DYRK1B (human)
  residual activity: 93.9%
DYRK2 (human)
  residual activity: 90.8%
EPHA2 (human)
  residual activity: 110%
EPHB3 (human)
  residual activity: 99.7%
FGFR3 (human)
  residual activity: 55.8%
GRK4 (human)
  residual activity: 101%
HCK (human)
  residual activity: 88.5%
HIPK1 (human)
  residual activity: 97.2%
JAK3 JH1 JH2 (human)
  residual activity: 89.3%
MAP3K3 (human)
  residual activity: 88.6%
MAPK12 (human)
  residual activity: 93%
MAPK8 (human)
  residual activity: 107%
MAPKAPK5 (human)
  residual activity: 90.6%
MARK3 (human)
  residual activity: 84.9%
MET (human)
  residual activity: 81.6%
MINK1 (human)
  residual activity: 26.4%
MST4 (human)
  residual activity: 87.9%
NEK1 (human)
  residual activity: 94.6%
NEK11 (human)
  residual activity: 111%
NEK7 (human)
  residual activity: 103%
NTRK1 (human)
  residual activity: 51.8%
NTRK3 (human)
  residual activity: 11.9%
PDGFRA (human)
  residual activity: 76.2%
PNCK (human)
  residual activity: 98.6%
PRKCZ (human)
  residual activity: 104%
PRKD1 (human)
  residual activity: 93.8%
PRKD2 (human)
  residual activity: 95.8%
PRKG1 (human)
  residual activity: 77% and 87.9%
PTK2 (human)
  residual activity: 81.9%
RPS6KA1 KD1 KD2 (human)
  residual activity: 70.4%
RPS6KB1 (human)
  residual activity: 91.9%
SLK (human)
  residual activity: 73.4%
SRPK3 (human)
  residual activity: 77.8%
TBK1 (human)
  residual activity: 66.9%
